This is an account of results in patent publication US20220265759A1, “COMPOSITION AND METHOD FOR PROMOTING WOUND HEALING” (THE BOARD OF TRUSTEES OF THE UNIVERSITY OF ILLIOIS, priority 2019, published 2022).

For series [1] the following is noted: cited from earlier work.
For series [2], the system named is HUVECs. The series can be described thus: Endothelial cell tube formation induced by CCL28. Type of series: cell-based, human. Conditions: induced by 500 ng/ml CCL28. How it is done: Endothelial Cell Tube Formation. HUVECs were transfected with eNOS (50 nM), CCR10 (100 nM), or scrambled control (100 nM) siRNA and, after 48 hours, the cells were transferred to 96-well plates preloaded with extracellular matrix sold under the tradename […]®. To examine the CCL28 signaling pathways, HUVECs were pre-incubated with vehicle or specific inhibitors and then stimulated with or without CCL28 as described previously (Chen, et al. (2015) Ann. Rheum. Dis. 74:1898-1906).
The role of CCL28/CCR10 signaling pathways was further investigated in angiogenesis. Pretreatment of cells with 10 μM wortmannin (PI3K inhibitor), 5 μM U0126 (MAPK/ERK inhibitor), 1 mM L-NAME (eNOS inhibitor), 10 μM PP2 (Src kinase inhibitor), and 10 μM STO-609 ([…]) reduced endothelial cell tube formation induced by 500 ng/ml CCL28. […] In addition, CCL28 stimulation of endothelial cells for 24 hours enhanced expression levels of cell adhesion protein […] and anti-apoptotic protein B-cell leukemia/lymphoma-2 (Bcl-2), supporting the proliferation potential of endothelial cells in response to stimulation with CCL28.

Series [3] deals with T1, CCR10-eNOS interaction (Homo sapiens, UniProt P46092).
T1 construct: host or cells: HUVEC (primary human umbilical vein endothelial cells)
T1 sequence (P46092 1-362): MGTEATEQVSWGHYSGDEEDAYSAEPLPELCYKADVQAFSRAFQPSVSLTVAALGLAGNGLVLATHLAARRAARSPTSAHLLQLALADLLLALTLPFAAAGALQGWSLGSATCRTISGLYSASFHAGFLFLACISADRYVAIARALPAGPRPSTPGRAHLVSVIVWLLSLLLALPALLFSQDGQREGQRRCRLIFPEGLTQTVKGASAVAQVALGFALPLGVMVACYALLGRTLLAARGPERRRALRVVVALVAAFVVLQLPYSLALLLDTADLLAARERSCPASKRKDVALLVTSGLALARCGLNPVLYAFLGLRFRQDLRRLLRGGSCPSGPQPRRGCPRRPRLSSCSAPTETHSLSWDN
As to the kind of experiment: Ligand-induced CCR10-eNOS interaction in HUVEC (Co-IP, confocal co-localization). Type of series: cell-based. How it is done: (§1) Co-IP Experiments, cells or mouse wounds were collected after treatment, and lysed in 2% ODG in Tris buffer. The homogenates were further prepared for Co-IP experiments as described in the art (Chen, et al. (2018) Mol. Biol. Cell 29(10):1190-1202; Chen, et al. (2020) FASEB J. 34(4):5838-5850; Chen, et al. (2015) Ann. Rheum. Dis. 74:1898-1906).
Confocal Microscopy. For cellular immunostaining, confluent monolayers of cells grown on coverslips were prepared as described previously (Chen, et al. (2012) Mel. Biol. Cell 23(7):1388-1398). Fluorescent images were obtained using a Zeiss LSM 880 confocal microscope. The co-localization coefficient in specified regions of interest (ROI) were determined using Zeiss Zen software. Briefly, using the Overlay tool, the desired ROI was drawn along the cell edge and the values for the ROIs tabulated. The scatterplot and table were automatically adjusted to the pixel distribution for the selected ROI. The data from different treatment groups were collected and analyzed for statistical significance as described previously (Chen, et al. (2020) FASEB J. 34(4):5838-5850).
To investigate whether CCR10 interacts directly with eNOS, primary culture HUVEC were collected and prepared for co-immunoprecipitation (Co-IP) to assess CCR10-eNOS interaction following stimulation with 5 μM A23187. […] Similar results were obtained in endothelial cells following stimulation with 500 ng/ml human recombinant CCL28. CCR10-eNOS interaction was further supported by confocal microscopy and high-resolution imaging. Upon stimulation with A23187 or CCL28 for 5 minutes, CCR10 co-localized to a greater extent with eNOS on the plasma membrane. Co-localization coefficient in the regions of interest (ROI) in the plasma membrane were quantified from Zeiss LSM 880 confocal microscope images using Zeiss Zen software.

The target in series [4] is T1, CCR10-eNOS interaction. The series can be described thus: Co-IP of CCR10-eNOS interaction in HUVECs stimulated with A23187. Type of series: cell-based. Conditions: endothelial cells (HUVECs), pretreatment 50 μM, 5 μM A23187 for 5 minutes, vs control peptide. How it is done:
Immunoblot and Co-Immunoprecipitation (Co-IP). After serum starvation, inhibitors were added 45 minutes prior to stimulation for indicated times at 37° C., and cells were then collected and lysed for western blot analysis. After probing for p-eNOS (Ser1177), p-p85 (Tyr458), p-Src (Tyr 416), and p-ERK (T202/Y204), the same blots were stripped and re-probed for total proteins mentioned above. For detection of CCL28-induced protein levels of β-catenin and Bcl-2, near-confluent endothelial cells were incubated with 500 ng/ml CCL28 for 24 hours in EGM-2 medium containing 1% FBS.
as §1
Therefore, the effect of inhibition of CCR10-eNOS interaction was investigated using a panel of cell-permeable peptides based on the sequence of the predicted interaction domain on eNOS. Similar peptides have been described in determining the solution structure of calmodulin bound to the target peptide of eNOS (Piazza, et al. (2014) Biochemistry 53(8):1241-9; Piazza, et al. (2016) Biochemistry 55(42):5962-71). First, myristoylated 20 amino acid peptide (491-[…]-510 (P1); SEQ ID NO:61) was synthesized based on the sequence of human eNOS (which is conserved in mouse eNOS). […] It was subsequently determined whether truncated versions of the CBD-derived peptide would have the same effect.

Square brackets hold non-standard residues; d marks the D form. Ends that are not written are not given here. Peptide text beside a SMILES is read from it. * marks the point of attachment. d2Nal = N[C@H](Cc1ccc2ccccc2c1)C(=O)O; Myristoyl = CCCCCCCCCCCCCC(=O)*; Aib = CC(C)(N)C(=O)O

In general, half-life refers to how long it takes for the measured level to halve.

Turning to `CC(C)(N)C(=O)N[C@@H](Cc1c[nH]cn1)C(=O)N[C@H](Cc1ccc2ccccc2c1)C(=O)N[C@H](Cc1ccccc1)C(=O)N[C@@H](CCCCN)C(N)=O` [Ipamorelin] (H-[Aib]H[d2Nal][dF]K-NH2), the terminal half-life entry in series [1] (in humans) is “about 2 hours”. Consider `COC(=O)[C@@H](N)CCCNC(=N)N[N+](=O)[O-]` [L-NAME, N^G-nitro-L-arginine methyl ester], for which the “endothelial cell tube formation” value in series [2] (pretreatment 1 mM) is listed as “reduced”.

For `CNc1ccc2oc(C[C@H]3O[C@@]4(CC[C@H]3C)O[C@H]([C@H](C)C(=O)c3ccc[nH]3)[C@H](C)C[C@H]4C)nc2c1C(=O)O` [Peptide A23187], in series [3] (HUVEC, 5 μM), the “binding of CCR10 to eNOS (Co-IP)” value is “Enhanced” and the “time of maximum CCR10-eNOS binding” value is 5 minutes. Further, in series [3] (plasma membrane ROI, stimulation for 5 minutes, untreated control cells 43%), the “Co-localization coefficient of CCR10 and eNOS” value is recorded as 81%. `N#CC(=C(/N)Sc1ccccc1N)/C(C#N)=C(\N)Sc1ccccc1N` [Peptide U0126]: the “endothelial cell tube formation” value in series [2] (pretreatment 5 μM) is on record as “reduced”. For the compound `O=C(O)c1ccc2c3c1cccc3c(=O)n1c3ccccc3nc21` [STO-609], in series [2] (pretreatment 10 μM), the “endothelial cell tube formation” value is reported as “reduced”. Regarding `NC(=O)CC[C@@H]1NC(=O)[C@H](Cc2ccccc2)NC(=O)[C@H](Cc2ccc(O)cc2)NC(=O)[C@@H](N)CSSC[C@@H](C(=O)N2CCC[C@H]2C(=O)N[C@@H](CCCN=C(N)N)C(=O)NCC(N)=O)NC(=O)[C@H](CC(N)=O)NC1=O` [vasopressin], the half-life in series [1] (in humans) is 0.167 to 0.583 h.

albiglutide: in series [1] (in humans), the half-life is 140 to 170 h.

Regarding “myr-FKEVANAVKISASLM (Myristoyl-FKEVANAVKISASLM) [Peptide P2]”, in series [4], the “CCR10-eNOS interaction (Co-IP)” value is “completely blocked”. As for “myr-TRKKTFKEVANAVKISASLM (Myristoyl-TRKKTFKEVANAVKISASLM) [Peptide P1]”, the “CCR10-eNOS interaction (Co-IP)” value in series [4] was “completely blocked”; in series [4] (listed as Myr-CBD20) it was “significantly reduced”. On to “myr-VANAVKISASLM (Myristoyl-VANAVKISASLM) [Peptide P3]”, for which the “CCR10-eNOS interaction (Co-IP)” value in series [4] is listed as “completely blocked”.

As for peginesatide, the elimination half-life in series [1] (in healthy volunteers) was 18.9 h.
